ChEMBL document CHEMBL4011587, “Design, synthesis and evaluation of novel ferulic acid-O-alkylamine derivatives as potential multifunctional agents for the treatment of Alzheimer's disease” (Eur J Med Chem, 2017)
pIC50: −log10 of the molar value.

How the values were obtained:
Acetylcholinesterase [1] = target: T1, Acetylcholinesterase (Rattus norvegicus, UniProt P37136); test: Inhibition of AChE in rat cortex homogenates using acetylthiocholine chloride as substrate measured after 15 mins by Ellman's method; format: ADME
T1 sequence (P37136 whole entry): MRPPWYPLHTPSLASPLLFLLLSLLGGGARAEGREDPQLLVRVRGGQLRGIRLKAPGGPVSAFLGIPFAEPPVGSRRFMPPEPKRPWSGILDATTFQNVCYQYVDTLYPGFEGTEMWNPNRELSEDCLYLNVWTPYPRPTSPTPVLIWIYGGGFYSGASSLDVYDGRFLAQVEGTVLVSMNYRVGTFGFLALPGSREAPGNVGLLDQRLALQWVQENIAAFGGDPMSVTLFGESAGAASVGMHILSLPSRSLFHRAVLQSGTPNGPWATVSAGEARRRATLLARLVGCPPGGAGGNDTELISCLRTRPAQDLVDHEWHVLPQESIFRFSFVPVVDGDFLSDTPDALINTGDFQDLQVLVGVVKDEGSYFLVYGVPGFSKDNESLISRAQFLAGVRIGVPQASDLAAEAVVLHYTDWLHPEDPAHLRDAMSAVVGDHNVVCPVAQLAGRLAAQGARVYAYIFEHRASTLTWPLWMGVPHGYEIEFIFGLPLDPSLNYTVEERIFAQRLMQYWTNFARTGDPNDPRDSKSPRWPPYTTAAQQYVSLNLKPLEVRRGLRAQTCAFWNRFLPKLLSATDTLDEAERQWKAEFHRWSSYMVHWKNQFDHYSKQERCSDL

Acetylcholinesterase [2] = target: T2, Acetylcholinesterase (Electrophorus electricus, UniProt O42275); test: Inhibition of electric eel AChE using acetylthiocholine chloride as substrate measured after 15 mins by Ellman's method; format: ADME
[3] = Antioxidant activity assessed as inhibition of AAPH-induced peroxyl radical generation measured as trolox equivalent at 1 to 10 uM preincubated for 15 mins followed by AAPH addition measured every minute for 90 mins by ORAC-FL assay; format: functional
Cholinesterase = Cholinesterase (Equus caballus, UniProt P81908); test: Inhibition of equine serum BuChE using butyrylthiocholine chloride as substrate measured after 15 mins by Ellman's method
[4] = Inhibition of BuChE in rat serum using butyrylthiocholine chloride as substrate measured after 15 mins by Ellman's method; settings: 0.25 h
[5] = target: Amyloid-beta precursor protein (Homo sapiens) (UniProt P05067); test: Inhibition of amyloid beta (1 to 42) (unknown origin) self-aggregation at 25 uM after 24 hrs by thioflavin-T fluorescence assay relative to control
[6] = Selectivity index, ratio of IC50 for electric eel AChE to IC50 for equine serum BuChE
Acetylcholinesterase [7] = target: T2, Acetylcholinesterase; test: Inhibition of electric eel AChE at 25 uM using acetylthiocholine chloride as substrate measured after 15 mins by Ellman's method relative to control; settings: 0.25 h
Acetylcholinesterase [8] = target: T1, Acetylcholinesterase; test: Inhibition of AChE in rat cortex homogenates at 25 umol/l using acetylthiocholine chloride as substrate measured after 15 mins by Ellman's method; settings: 0.25 h

Sequence of Amyloid-beta precursor protein (Homo sapiens) (P05067 whole entry): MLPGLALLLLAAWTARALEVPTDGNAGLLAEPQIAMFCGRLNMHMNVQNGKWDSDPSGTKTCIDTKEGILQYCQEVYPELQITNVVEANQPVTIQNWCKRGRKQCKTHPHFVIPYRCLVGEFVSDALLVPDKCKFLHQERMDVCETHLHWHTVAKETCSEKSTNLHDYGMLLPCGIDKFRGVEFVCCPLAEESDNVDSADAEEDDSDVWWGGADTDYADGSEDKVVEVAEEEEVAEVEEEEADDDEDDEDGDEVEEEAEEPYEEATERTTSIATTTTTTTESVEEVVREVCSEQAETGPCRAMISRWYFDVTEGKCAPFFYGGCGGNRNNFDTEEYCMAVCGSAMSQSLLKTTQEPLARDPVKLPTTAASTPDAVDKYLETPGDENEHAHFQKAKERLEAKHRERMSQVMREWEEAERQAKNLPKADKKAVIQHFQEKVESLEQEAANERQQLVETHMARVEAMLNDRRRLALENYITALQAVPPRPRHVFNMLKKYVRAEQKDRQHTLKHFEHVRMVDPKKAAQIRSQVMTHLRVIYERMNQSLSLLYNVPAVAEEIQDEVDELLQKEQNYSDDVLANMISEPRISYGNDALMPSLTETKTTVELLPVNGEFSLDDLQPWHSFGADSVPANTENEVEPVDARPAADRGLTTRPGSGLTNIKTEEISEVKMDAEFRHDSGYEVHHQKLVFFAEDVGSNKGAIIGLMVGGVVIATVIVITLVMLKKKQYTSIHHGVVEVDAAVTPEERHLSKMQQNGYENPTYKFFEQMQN
Sequence of Cholinesterase (P81908 whole entry): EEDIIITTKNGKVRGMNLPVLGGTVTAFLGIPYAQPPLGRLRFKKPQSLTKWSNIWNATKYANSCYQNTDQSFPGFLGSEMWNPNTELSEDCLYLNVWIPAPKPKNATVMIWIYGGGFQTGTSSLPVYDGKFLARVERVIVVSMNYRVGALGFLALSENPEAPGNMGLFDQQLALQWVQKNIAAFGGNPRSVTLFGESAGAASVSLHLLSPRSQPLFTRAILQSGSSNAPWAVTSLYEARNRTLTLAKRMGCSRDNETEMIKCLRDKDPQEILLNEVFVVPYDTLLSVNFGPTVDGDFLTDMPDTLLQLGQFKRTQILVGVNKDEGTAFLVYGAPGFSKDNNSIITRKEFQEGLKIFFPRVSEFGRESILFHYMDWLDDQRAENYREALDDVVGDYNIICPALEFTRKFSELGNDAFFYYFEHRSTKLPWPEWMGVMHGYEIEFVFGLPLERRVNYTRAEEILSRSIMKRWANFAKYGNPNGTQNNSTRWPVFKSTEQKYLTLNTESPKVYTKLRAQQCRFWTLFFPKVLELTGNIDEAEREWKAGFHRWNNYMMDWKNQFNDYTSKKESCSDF
T2 sequence (O42275 whole entry): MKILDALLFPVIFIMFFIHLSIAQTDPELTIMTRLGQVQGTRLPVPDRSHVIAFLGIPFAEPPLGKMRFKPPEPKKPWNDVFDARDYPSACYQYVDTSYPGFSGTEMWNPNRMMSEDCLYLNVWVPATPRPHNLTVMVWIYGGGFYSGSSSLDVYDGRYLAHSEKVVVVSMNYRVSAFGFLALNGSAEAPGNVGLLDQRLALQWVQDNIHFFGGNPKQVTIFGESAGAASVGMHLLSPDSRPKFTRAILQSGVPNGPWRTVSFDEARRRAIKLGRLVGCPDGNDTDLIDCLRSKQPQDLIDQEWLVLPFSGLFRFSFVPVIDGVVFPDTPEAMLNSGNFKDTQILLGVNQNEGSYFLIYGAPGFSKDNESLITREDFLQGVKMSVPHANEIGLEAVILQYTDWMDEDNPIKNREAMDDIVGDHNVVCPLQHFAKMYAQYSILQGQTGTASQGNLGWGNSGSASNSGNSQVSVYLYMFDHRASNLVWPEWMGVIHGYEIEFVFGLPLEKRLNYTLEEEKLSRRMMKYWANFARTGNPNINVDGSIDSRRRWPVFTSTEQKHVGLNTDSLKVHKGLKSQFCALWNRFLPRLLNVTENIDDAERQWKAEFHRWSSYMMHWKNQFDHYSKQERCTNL

**Q.** With `COc1cc(/C=C/C(=O)N2CCC(Cc3ccccc3)CC2)ccc1OCCCCCCN1CCc2ccccc2C1` as the molecule, how does the pIC50 (Acetylcholinesterase [1]) read?
**A.** 4.67

**Q.** And the pIC50 (Acetylcholinesterase [2])?
**A.** 5.03

**Q.** What about the Activity [3] of the same molecule?
**A.** 0.49 equiv

**Q.** And the pIC50 (Cholinesterase)?
**A.** 6.06

**Q.** What about the pIC50 [4] of the same molecule?
**A.** 5.46

**Q.** What about the inhibition [5] of the same molecule?
**A.** 54.7%

**Q.** And the Ratio IC50 [6]?
**A.** 10.6

**Q.** With `COc1cc(/C=C/C(=O)N2CCC(Cc3ccccc3)CC2)ccc1OCCCCCN1CCN(c2ccccn2)CC1` as the molecule, how does the pIC50 (Acetylcholinesterase [1]) read?
**A.** 4.23

**Q.** And the pIC50 (Acetylcholinesterase [2])?
**A.** 5.04

**Q.** And the Activity [3]?
**A.** 0.45 equiv

**Q.** What about the pIC50 (Cholinesterase) of the same molecule?
**A.** 5.82

**Q.** And the pIC50 [4]?
**A.** 4.24

**Q.** What about the inhibition [5] of the same molecule?
**A.** 51.5%

**Q.** What about the Ratio IC50 [6] of the same molecule?
**A.** 6

**Q.** What does the source list for `COc1cc(/C=C/C(=O)N2CCC(Cc3ccccc3)CC2)ccc1OCCCN1CCc2ccccc2C1`?
**A.** pIC50 (Acetylcholinesterase [1]): 5.72; pIC50 (Acetylcholinesterase [2]): 5.66; Activity [3]: 0.51 equiv; pIC50 (Cholinesterase): 6.92; pIC50 [4]: 5.64; inhibition [5]: 55.6%; Ratio IC50 [6]: 18.4

**Q.** With `COc1cc(/C=C/C(=O)N2CCC(Cc3ccccc3)CC2)ccc1OCCCCCCN1CCN(Cc2ccccc2)CC1` as the molecule, how does the pIC50 (Acetylcholinesterase [1]) read?
**A.** 4.14

**Q.** What about the pIC50 (Acetylcholinesterase [2]) of the same molecule?
**A.** 5.32

**Q.** What about the Activity [3] of the same molecule?
**A.** 0.73 equiv

**Q.** What about the pIC50 (Cholinesterase) of the same molecule?
**A.** 5.66

**Q.** What about the pIC50 [4] of the same molecule?
**A.** 4.30

**Q.** What about the inhibition [5] of the same molecule?
**A.** 51.1%

**Q.** And the Ratio IC50 [6]?
**A.** 2.2

**Q.** With `COc1cc(/C=C/C(=O)N2CCC(Cc3ccccc3)CC2)ccc1OCCCN1CCN(c2ncccn2)CC1` as the molecule, how does the pIC50 (Acetylcholinesterase [1]) read?
**A.** 4.03

**Q.** And the pIC50 (Acetylcholinesterase [2])?
**A.** 4.90

**Q.** What about the Activity [3] of the same molecule?
**A.** 0.41 equiv

**Q.** What about the pIC50 (Cholinesterase) of the same molecule?
**A.** 5.29

**Q.** And the pIC50 [4]?
**A.** 4.34

**Q.** And the inhibition [5]?
**A.** 46.9%

**Q.** And the Ratio IC50 [6]?
**A.** 2.5

**Q.** What does the source list for `COc1cc(/C=C/C(=O)N2CCC(Cc3ccccc3)CC2)ccc1O`?
**A.** Activity [3]: 1.2 equiv; pIC50 (Cholinesterase): 5.24; inhibition at 25 µM (Acetylcholinesterase [7]): < 5%; inhibition [5]: 65.9%

**Q.** With `COc1cc(/C=C/C(=O)N2CCC(Cc3ccccc3)CC2)ccc1OCCCCCCN1CCN(c2ccccn2)CC1` as the molecule, how does the pIC50 (Acetylcholinesterase [2]) read?
**A.** 4.81

**Q.** What about the Activity [3] of the same molecule?
**A.** 0.38 equiv

**Q.** What about the pIC50 (Cholinesterase) of the same molecule?
**A.** 6.02

**Q.** And the inhibition at 25 µM (Acetylcholinesterase [8])?
**A.** 18.5%

**Q.** And the pIC50 [4]?
**A.** 5.16

**Q.** What about the inhibition [5] of the same molecule?
**A.** 49.9%

**Q.** What about the Ratio IC50 [6] of the same molecule?
**A.** 16.4

**Q.** With `COc1cc(/C=C/C(=O)N2CCC(Cc3ccccc3)CC2)ccc1OCCCCCN1CCN(Cc2ccccc2)CC1` as the molecule, how does the pIC50 (Acetylcholinesterase [1]) read?
**A.** 4.10

**Q.** And the pIC50 (Acetylcholinesterase [2])?
**A.** 5.58

**Q.** What about the Activity [3] of the same molecule?
**A.** 0.66 equiv

**Q.** What about the pIC50 (Cholinesterase) of the same molecule?
**A.** 5.65

**Q.** What about the pIC50 [4] of the same molecule?
**A.** 4.21

**Q.** What about the inhibition [5] of the same molecule?
**A.** 55.9%

**Q.** What about the Ratio IC50 [6] of the same molecule?
**A.** 1.2

**Q.** With `COc1cc(/C=C/C(=O)N2CCC(Cc3ccccc3)CC2)ccc1OCCCCN1CCN(Cc2ccccc2)CC1` as the molecule, how does the pIC50 (Acetylcholinesterase [1]) read?
**A.** 4.25

**Q.** And the pIC50 (Acetylcholinesterase [2])?
**A.** 5.60

**Q.** And the Activity [3]?
**A.** 0.67 equiv

**Q.** What about the pIC50 (Cholinesterase) of the same molecule?
**A.** 6.41

**Q.** And the pIC50 [4]?
**A.** 4.38

**Q.** And the inhibition [5]?
**A.** 54.6%

**Q.** And the Ratio IC50 [6]?
**A.** 6.5

**Q.** With `COc1cc(/C=C/C(=O)N2CCC(Cc3ccccc3)CC2)ccc1OCCCCN1CCN(c2ccccn2)CC1` as the molecule, how does the pIC50 (Acetylcholinesterase [1]) read?
**A.** 4.17

**Q.** What about the pIC50 (Acetylcholinesterase [2]) of the same molecule?
**A.** 4.95

**Q.** And the Activity [3]?
**A.** 0.4 equiv

**Q.** And the pIC50 (Cholinesterase)?
**A.** 5.79

**Q.** And the pIC50 [4]?
**A.** 4.31

**Q.** And the inhibition [5]?
**A.** 49.8%

**Q.** What about the Ratio IC50 [6] of the same molecule?
**A.** 6.9
